Measurements as given in US6355799B1, “Substituted benzene compounds, process for their preparation, and herbicidal and defoliant compositions containing them” (ISK Americas Incorporated, priority 1997, dated 2002).

Tests used:
Type in all cases: in vivo
[1] = tested on: upland rice (Oryza sp., var. Tebonnet, RICE); experiment: Post-emerge test, crop safety; conditions: phytotoxicity rating 0-100 (0 no damage, 100 complete death), 14 days after application
Procedure, shortened: (§1)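 Compounds in acetone were track-sprayed at 187 l/ha, 15–1000 g ai/ha, onto sandy loam pots. Pre-emerge seeds were sown one day before spraying, with surface watering afterwards. Post-emerge plants were at the 2–3 leaf stage and sprayed with 0.25% v/v non-ionic surfactant. Injury was rated 0–100 at 14 days.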

[2] = tested on: field corn (Zea mays L., var. Dekalb 535, CORN); experiment: Post-emerge test, crop safety; conditions: phytotoxicity rating 0-100 (0 no damage, 100 complete death), 14 days after application
Procedure, shortened: as §1

[3] = tested on: barnyardgrass (Echinochloa crus-galli, ECHCG); experiment: Pre-emerge test, greenhouse herbicide activity screening; conditions: pre-emerge, rated 14 days after application, 0 = no damage, 100 = complete death
Procedure, shortened: as §1

[4] = tested on: johnsongrass (Sorghum halepense, SORHA); experiment: as above; conditions: pre-emerge, rated 14 days after application, 0 = no damage, 100 = complete death
Procedure, shortened: as §1

[5] = tested on: velvetleaf (Abutilon theophrasti, ABUTH); experiment: as above; conditions: pre-emerge, rated 14 days after application, 0 = no damage, 100 = complete death
Procedure, shortened: as §1

[6] = tested on: large crabgrass (Digitaria sanguinalis, DIGSA); experiment: as above; conditions: pre-emerge, rated 14 days after application, 0 = no damage, 100 = complete death
Procedure, shortened: as §1

[7] = tested on: lambsquarters (Chenopodium album, CHEAL); experiment: as above; conditions: pre-emerge, rated 14 days after application, 0 = no damage, 100 = complete death
Procedure, shortened: as §1

[8] = tested on: sicklepod (Cassia obtusifolia, CASOB); experiment: as above; conditions: pre-emerge, rated 14 days after application, 0 = no damage, 100 = complete death
Procedure, shortened: as §1

[9] = tested on: ivyleaf morningglory (Ipomoea hederacea, IPOHE); experiment: as above; conditions: pre-emerge, rated 14 days after application, 0 = no damage, 100 = complete death
Procedure, shortened: as §1

[10] = tested on: green foxtail (Setaria viridis, SETVI); experiment: as above; conditions: pre-emerge, rated 14 days after application, 0 = no damage, 100 = complete death
Procedure, shortened: as §1

[11] = tested on: redroot pigweed (Amaranthus retroflexus, AMARE); experiment: as above; conditions: pre-emerge, rated 14 days after application, 0 = no damage, 100 = complete death
Procedure, shortened: as §1

[12] = tested on: barnyardgrass (Echinochloa crus-galli, ECHCG); experiment: Post-emerge test, greenhouse herbicide activity screening; conditions: phytotoxicity rating 0-100 (0 no damage, 100 complete death), 14 days after application
Procedure, shortened: (§2)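 Visual ratings on a 0-100 scale (0 no damage, 100 all plants dead) were taken at 14 days after treatment. Rates of 15-1000 g ai/ha in acetone, 187 l/ha, were sprayed onto soil one day after planting (pre-emerge) or onto 2-3 leaf plants with 0.25% v/v surfactant (post-emerge).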

[13] = tested on: johnsongrass (Sorghum halepense, SORHA); experiment: as above; conditions: phytotoxicity rating 0-100 (0 no damage, 100 complete death), 14 days after application
Procedure, shortened: as §2

[14] = tested on: velvetleaf (Abutilon theophrasti, ABUTH); experiment: as above; conditions: phytotoxicity rating 0-100 (0 no damage, 100 complete death), 14 days after application
Procedure, shortened: as §2

[15] = tested on: redroot pigweed (Amaranthus retroflexus, AMARE); experiment: as above; conditions: phytotoxicity rating 0-100 (0 no damage, 100 complete death), 14 days after application
Procedure, shortened: as §2

[16] = tested on: common ragweed (Ambrosia artemisizfolia L., AMBEL); experiment: as above; conditions: phytotoxicity rating 0-100 (0 no damage, 100 complete death), 14 days after application
Procedure, shortened: as §2

[17] = tested on: large crabgrass (Digitaria sanguinalis, DIGSA); experiment: as above; conditions: phytotoxicity rating 0-100 (0 no damage, 100 complete death), 14 days after application
Procedure, shortened: as §2

[18] = tested on: lambsquarters (Chenopodium album, CHEAL); experiment: as above; conditions: phytotoxicity rating 0-100 (0 no damage, 100 complete death), 14 days after application
Procedure, shortened: as §2

[19] = tested on: sicklepod (Cassia obtusifolia, CASOB); experiment: as above; conditions: phytotoxicity rating 0-100 (0 no damage, 100 complete death), 14 days after application
Procedure, shortened: as §2

[20] = tested on: ivyleaf morningglory (Ipomoea hederacea, IPOHE); experiment: as above; conditions: phytotoxicity rating 0-100 (0 no damage, 100 complete death), 14 days after application
Procedure, shortened: as §2

[21] = tested on: green foxtail (Setaria viridis, SETVI); experiment: as above; conditions: phytotoxicity rating 0-100 (0 no damage, 100 complete death), 14 days after application
Procedure, shortened: as §2

[22] = tested on: upland rice (Oryza sp., var. Tebonnet, RICE); experiment: Pre-emerge test, crop safety; conditions: pre-emerge, rated 14 days after application, 0 = no damage, 100 = complete death
Procedure, shortened: as §1

[23] = tested on: field corn (Zea mays L., var. Dekalb 535, CORN); experiment: Pre-emerge test, crop safety; conditions: pre-emerge, rated 14 days after application, 0 = no damage, 100 = complete death
Procedure, shortened: as §1

`COc1c(Cl)cc(F)c(-n2c(=O)cc(C(F)(F)F)n(C)c2=O)c1N=C(Cl)C(Cl)(Cl)Cl` [Compound 1-30] was tested, and the “Post-emerge Herbicidal Activity RICE (crop damage)” value ([1]; 63 g ai/ha) was 0, the “Post-emerge Herbicidal Activity RICE (crop damage)” value ([1]; 250 g ai/ha) was 20 and the “Post-emerge Herbicidal Activity CORN (crop damage)” value ([2]; 63 g ai/ha) was 0. The “Post-emerge Herbicidal Activity CORN (crop damage)” value ([2]; 250 g ai/ha) was 10, the “Pre-emerge Herbicidal Activity ECHCG (phytotoxicity rating, scale 0-100)” value ([3]; 63 g ai/ha) was 0 and the “Pre-emerge Herbicidal Activity ECHCG (phytotoxicity rating, scale 0-100)” value ([3]; 250 g ai/ha) was 0. The “Pre-emerge Herbicidal Activity SORHA (phytotoxicity rating, scale 0-100)” value ([4]; 63 g ai/ha) was 0, the “Pre-emerge Herbicidal Activity SORHA (phytotoxicity rating, scale 0-100)” value ([4]; 250 g ai/ha) was 10 and the “Pre-emerge Herbicidal Activity ABUTH (phytotoxicity rating, scale 0-100)” value ([5]; 63 g ai/ha) was 50. The “Pre-emerge Herbicidal Activity ABUTH (phytotoxicity rating, scale 0-100)” value ([5]; 250 g ai/ha) was 100, the “Pre-emerge Herbicidal Activity DIGSA (phytotoxicity rating, scale 0-100)” value ([6]; 63 g ai/ha) was 0 and the “Pre-emerge Herbicidal Activity DIGSA (phytotoxicity rating, scale 0-100)” value ([6]; 250 g ai/ha) was 90. For the same compound, the “Pre-emerge Herbicidal Activity CHEAL (phytotoxicity rating, scale 0-100)” value ([7]; 63 g ai/ha) was 85, the “Pre-emerge Herbicidal Activity CHEAL (phytotoxicity rating, scale 0-100)” value ([7]; 250 g ai/ha) was 100 and the “Pre-emerge Herbicidal Activity CASOB (phytotoxicity rating, scale 0-100)” value ([8]; 63 g ai/ha) was 0. For the same compound, the “Pre-emerge Herbicidal Activity CASOB (phytotoxicity rating, scale 0-100)” value ([8]; 250 g ai/ha) was 70, the “Pre-emerge Herbicidal Activity IPOHE (phytotoxicity rating, scale 0-100)” value ([9]; 63 g ai/ha) was 0 and the “Pre-emerge Herbicidal Activity IPOHE (phytotoxicity rating, scale 0-100)” value ([9]; 250 g ai/ha) was 70. For the same compound, the “Pre-emerge Herbicidal Activity SETVI (phytotoxicity rating, scale 0-100)” value ([10]; 63 g ai/ha) was 10, the “Pre-emerge Herbicidal Activity SETVI (phytotoxicity rating, scale 0-100)” value ([10]; 250 g ai/ha) was 100 and the “Pre-emerge Herbicidal Activity AMARE (phytotoxicity rating, scale 0-100)” value ([11]; 63 g ai/ha) was 0. The “Pre-emerge Herbicidal Activity AMARE (phytotoxicity rating, scale 0-100)” value ([11]; 250 g ai/ha) was 60, the “Post-emerge Herbicidal Activity ECHCG” value ([12]; 63 g ai/ha) was 0 and the “Post-emerge Herbicidal Activity ECHCG” value ([12]; 250 g ai/ha) was 0. For the same compound, the “Post-emerge Herbicidal Activity SORHA” value ([13]; 63 g ai/ha) was 0, the “Post-emerge Herbicidal Activity SORHA” value ([13]; 250 g ai/ha) was 0 and the “Post-emerge Herbicidal Activity ABUTH” value ([14]; 63 g ai/ha) was 30. The “Post-emerge Herbicidal Activity ABUTH” value ([14]; 250 g ai/ha) was 100, the “Post-emerge Herbicidal Activity AMARE” value ([15]; 63 g ai/ha) was 10 and the “Post-emerge Herbicidal Activity AMARE” value ([15]; 250 g ai/ha) was 30. The “Post-emerge Herbicidal Activity AMBEL” value ([16]; 63 g ai/ha) was 0, the “Post-emerge Herbicidal Activity AMBEL” value ([16]; 250 g ai/ha) was 70 and the “Post-emerge Herbicidal Activity DIGSA” value ([17]; 63 g ai/ha) was 0. The “Post-emerge Herbicidal Activity DIGSA” value ([17]; 250 g ai/ha) was 0, the “Post-emerge Herbicidal Activity CHEAL” value ([18]; 63 g ai/ha) was 0 and the “Post-emerge Herbicidal Activity CHEAL” value ([18]; 250 g ai/ha) was 60. The “Post-emerge Herbicidal Activity CASOB” value ([19]; 63 g ai/ha) was 0, the “Post-emerge Herbicidal Activity CASOB” value ([19]; 250 g ai/ha) was 30 and the “Post-emerge Herbicidal Activity IPOHE” value ([20]; 63 g ai/ha) was 20. For the same compound, the “Post-emerge Herbicidal Activity IPOHE” value ([20]; 250 g ai/ha) was 100, the “Post-emerge Herbicidal Activity SETVI” value ([21]; 63 g ai/ha) was 0 and the “Post-emerge Herbicidal Activity SETVI” value ([21]; 250 g ai/ha) was 0. The “Pre-emerge crop damage RICE (phytotoxicity rating, scale 0-100)” value ([22]; 63 g ai/ha) was 10, the “Pre-emerge crop damage RICE (phytotoxicity rating, scale 0-100)” value ([22]; 250 g ai/ha) was 30 and the “Pre-emerge crop damage CORN (phytotoxicity rating, scale 0-100)” value ([23]; 63 g ai/ha) was 0. For the same compound, the “Pre-emerge crop damage CORN (phytotoxicity rating, scale 0-100)” value ([23]; 250 g ai/ha) was 10.
